Test results taken from patent publication US10829499B2, “Tetracyclic heterocycle compounds useful as HIV integrase inhibitors” (MERCK SHARP & DOHME CORP., priority 2016, dated 2020).
Read-outs that look alike come from different tables or passages of the source.

System: HIV-1 (NL4-3 strain)
Experiment: Assay for Inhibition of HIV Replication (kinetic assay, MT4-gag-GFP reporter cell line; VIKING)
Format: cell-based
Experimental: This assay is a kinetic assay that employs a reporter cell line (MT4-gag-GFP) to quantify the number of new cells infected in each round of replication.
MT4-GFP cells (250,000 cells/ml) were bulk-infected with HIV-1 (NL4-3 strain) at low multiplicity of infection (MOI) in RPMI cell culture medium+10% FBS for 24 hours. Cells were then washed once in RPMI cell culture medium+10% FBS and resuspended in RPMI cell culture medium+0% or 10% or 100% normal human serum (NHS). Test compounds were serial-diluted in DMSO on an ECHO® liquid handler. The infected MT4-GFP cells were added to a 384-well poly-D-lysine coated black plate with clear bottom in which the diluted test compounds were placed. The cells were seeded at 8,000 cells per well and the final DMSO concentration was 0.4%. The infected cells (Green GFP cells) were quantified at both 24 and 48 hours post incubation using Acumen eX3. Viral reproductive ratio (R0) was determined using the number of infected cells at 48 hours divided by the number of infected cells at 24 hours. Percent viral growth inhibition was calculated by [1-(R-Rtripledrug),/(RDMSO-Rtripledrug)]*100. Compound potency IP or IC50 was determined by a 4-parameter dose response curve analysis. In vitro potency in the cell-based assay in the absence of normal human serum (NHS) and the presence of 100% NHS.

[1] = MT4-GFP cells infected with HIV-1 NL4-3, 0% normal human serum (NHS), read-out: VIKING IP50 (nM) with 0% NHS
[2] = MT4-GFP cells infected with HIV-1 NL4-3, 100% normal human serum (NHS), read-out: VIKING IP50 (nM) with 100% NHS
[3] = Human immunodeficiency virus 1, NL43, MT4-GFP cells infected with HIV-1 NL4-3, 0% normal human serum (NHS), read-out: VIKING IP50 (nM) with 0% NHS
[4] = Human immunodeficiency virus 1, NL43, MT4-GFP cells infected with HIV-1 NL4-3, 100% normal human serum (NHS), read-out: VIKING IP50 (nM) with 100% NHS

Row | SMILES | IC50 [1] [nM] | IC50 [2] [nM] | IC50 [3] [nM] | IC50 [4] [nM]
1 | O=C(NCc1ccc(F)cc1)c1c2n3c(c(O)c1=O)C(=O)N1CCCOC1C3CC2 (single isomer, unassigned) [Compound 54] | 0.654 | 904 | – | –
2 | O=C(NCc1ccc(F)cc1F)c1c2n3c(c(O)c1=O)C(=O)N1CCCOC1C3CC2 (single isomer, unassigned) [Compound 55] | – | 39.5 | 1.03 | –
3 | O=C(NCc1ccc(F)cc1F)c1c2n3c(c(O)c1=O)C(=O)N1CCCOC1C3CC2 (single isomer, unassigned) [Compound 56] | 0.701 | 1800 | – | –
4 | O=C(NCc1ccc(F)cc1F)c1c2n3c(c(O)c1=O)C(=O)N1CCCOC1C3CC2 (single isomer, unassigned) [Compound 57] | 0.919 | 871 | – | –
5 | O=C(NCc1ccc(F)cc1F)c1c2n3c(c(O)c1=O)C(=O)N1CCCOC1C3CC2 (single isomer, unassigned) [Compound 58] | 0.845 | 1520 | – | –
6 | C[C@H]1CCOC2C3CCc4c(C(=O)NCc5ccc(F)cc5F)c(=O)c(O)c(n43)C(=O)N21 (single isomer, unassigned) [Compound 61] | 22.1 | – | – | 8000
7 | C[C@H]1CCOC2C3CCc4c(C(=O)NCc5ccc(F)cc5F)c(=O)c(O)c(n43)C(=O)N21 (single isomer, unassigned) [Compound 62] | 0.83 | 528 | – | –
8 | C[C@H]1CCOC2C3CCc4c(C(=O)NCc5ccc(F)cc5F)c(=O)c(O)c(n43)C(=O)N21 (single isomer, unassigned) [Compound 63] | 3.09 | 127 | – | –
9 | O=C(NCc1cccc(Cl)c1F)c1c2n3c(c(O)c1=O)C(=O)N1CCCCOC1C3CC2 (single isomer, unassigned) [Compound 65] | 0.939 | 6680 | – | –
10 | O=C(NCc1cccc(Cl)c1F)c1c2n3c(c(O)c1=O)C(=O)N1CCCCOC1C3CC2 (single isomer, unassigned) [Compound 66] | 1.48 | 834 | – | –
11 | O=C(NCc1cccc(Cl)c1F)c1c2n3c(c(O)c1=O)C(=O)N1CCCCOC1C3CC2 (single isomer, unassigned) [Compound 67] | 0.577 | 1470 | – | –
12 | O=C(NCc1ccc(F)cc1F)c1c2n3c(c(O)c1=O)C(=O)N1CCCCOC1C3CC2 (single isomer, unassigned) [Compound 69] | – | 349 | 1.36 | –
13 | O=C(NCc1ccc(F)cc1F)c1c2n3c(c(O)c1=O)C(=O)N1CCCCOC1C3CC2 (single isomer, unassigned) [Compound 70] | 1.12 | 3920 | – | –
14 | O=C(NCc1ccc(F)cc1F)c1c2n3c(c(O)c1=O)C(=O)N1CCCCOC1C3CC2 (single isomer, unassigned) [Compound 71] | 1.25 | 30.7 | – | –
15 | COC1CC2C3OCCN3C(=O)c3c(O)c(=O)c(C(=O)NCc4ccc(F)cc4F)c1n32 (single isomer, unassigned) [Compound 73] | 0.679 | 49.4 | – | –
16 | COC1CC2C3OCCN3C(=O)c3c(O)c(=O)c(C(=O)NCc4ccc(F)cc4F)c1n32 (single isomer, unassigned) [Compound 74] | 2.19 | 181 | – | –
17 | COC1CC2C3OCCN3C(=O)c3c(O)c(=O)c(C(=O)NCc4ccc(F)cc4F)c1n32 (single isomer, unassigned) [Compound 75] | 4.99 | 6180 | – | –
18 | COC1CC2C3OCCN3C(=O)c3c(O)c(=O)c(C(=O)NCc4ccc(F)cc4F)c1n32 (single isomer, unassigned) [Compound 76] | 1.01 | 17.8 | – | –
19 | COC1CC2C3OCCN3C(=O)c3c(O)c(=O)c(C(=O)NCc4ccc(F)cc4F)c1n32 (single isomer, unassigned) [Compound 77] | 1.56 | 2160 | – | –
20 | COC1CC2C3OCCN3C(=O)c3c(O)c(=O)c(C(=O)NCc4ccc(F)cc4F)c1n32 (single isomer, unassigned) [Compound 78] | 2.12 | 534 | – | –
21 | COC1CC2C3OCCN3C(=O)c3c(O)c(=O)c(C(=O)NCc4ccc(F)cc4F)c1n32 (single isomer, unassigned) [Compound 79] | 1.79 | 135 | – | –
22 | CN1CCCN2C(=O)c3c(O)c(=O)c(C(=O)NCc4ccc(F)cc4F)c4n3C(CC4)C12 (single isomer, unassigned) [Compound 81] | – | 24.2 | 1.15 | –
23 | CN1CCCN2C(=O)c3c(O)c(=O)c(C(=O)NCc4ccc(F)cc4F)c4n3C(CC4)C12 (single isomer, unassigned) [Compound 82] | 1.17 | 550 | – | –
24 | CN1CCCN2C(=O)c3c(O)c(=O)c(C(=O)NCc4ccc(F)cc4F)c4n3C(CC4)C12 (single isomer, unassigned) [Compound 83] | 0.857 | 16.8 | – | –

Row | SMILES | IC50 [1] [nM] | IC50 [2] [nM] | IC50 [3] [nM] | IC50 [4] [nM]
25 | CN1CCCN2C(=O)c3c(O)c(=O)c(C(=O)NCc4cccc(Cl)c4F)c4n3C(CC4)C12 (single isomer, unassigned) [Compound 84] | 0.762 | 37.5 | – | –
26 | CN1CCCN2C(=O)c3c(O)c(=O)c(C(=O)NCc4cccc(Cl)c4F)c4n3C(CC4)C12 (single isomer, unassigned) [Compound 85] | 0.703 | 17.8 | – | –
27 | CN1CCCN2C(=O)c3c(O)c(=O)c(C(=O)NCc4cccc(Cl)c4F)c4n3C(CC4)C12 (single isomer, unassigned) [Compound 86] | 0.426 | 9.17 | – | –
28 | CN1CCCN2C(=O)c3c(O)c(=O)c(C(=O)NCc4cccc(Cl)c4F)c4n3C(CC4)C12 (single isomer, unassigned) [Compound 87] | 0.875 | 1000 | – | –
29 | C[C@@H]1COC2C3CCc4c(C(=O)NCc5ccc(F)cc5F)c(=O)c(O)c(n43)C(=O)N21 (stereo partly drawn) [Compound 32] | – | – | 0.671 | 101
30 | C[C@@H]1COC2C3CCc4c(C(=O)NCc5cccc(Cl)c5F)c(=O)c(O)c(n43)C(=O)N21 (stereo partly drawn) [Compound 35] | – | – | 0.733 | 88.7
31 | C[C@@H]1CN2C(=O)c3c(O)c(=O)c(C(=O)NCc4cccc(Cl)c4F)c4n3C(CC4)C2O1 (stereo partly drawn) [Compound 38] | – | – | 0.543 | 46.4
32 | C[C@H]1CN2C(=O)c3c(O)c(=O)c(C(=O)NCc4cccc(Cl)c4F)c4n3C(CC4)C2O1 (stereo partly drawn) [Compound 42] | – | – | 1.38 | 1570
33 | O=C(NCc1cccc(Cl)c1F)c1c2n3c(c(O)c1=O)C(=O)N1CCCO[C@H]1[C@H]3CC2 [Compound 47] | – | – | 2.39 | 2680
34 | CN1CCCN2C(=O)c3c(O)c(=O)c(C(=O)NCc4ccc(F)cc4F)c4n3C(CC4)C12 (stereo not drawn) [Compound 80] | – | – | 0.662 | 13.8
35 | C[C@H]1CNC2C3CCc4c(C(=O)NCc5cccc(Cl)c5F)c(=O)c(O)c(n43)C(=O)N21 (stereo partly drawn) [Compound 88] | – | – | 0.705 | 13.7
36 | C[C@H]1CNC2C3CCc4c(C(=O)NCc5cccc(Cl)c5F)c(=O)c(O)c(n43)C(=O)N21 (stereo partly drawn) [Compound 89] | 0.709 | 120 | – | –
37 | C[C@H]1CNC2C3CCc4c(C(=O)NCc5cccc(Cl)c5F)c(=O)c(O)c(n43)C(=O)N21 (stereo partly drawn) [Compound 90] | 0.397 | 24.6 | – | –
38 | C[C@H]1CN2C(=O)c3c(O)c(=O)c(C(=O)NCc4cccc(Cl)c4F)c4n3C(CC4)C2N1 (stereo partly drawn) [Compound 91] | 1 | 464 | – | –
39 | C[C@H]1CN2C(=O)c3c(O)c(=O)c(C(=O)NCc4cccc(Cl)c4F)c4n3C(CC4)C2N1 (stereo partly drawn) [Compound 92] | 0.67 | 8.12 | – | –
40 | C[C@H]1CN2C(=O)c3c(O)c(=O)c(C(=O)NCc4cccc(Cl)c4F)c4n3C(CC4)C2N1 (stereo partly drawn) [Compound 93] | 1.14 | – | – | 49
41 | C[C@H]1CN2C(=O)c3c(O)c(=O)c(C(=O)NCc4cccc(Cl)c4F)c4n3C(CC4)C2N1 (stereo partly drawn) [Compound 94] | 0.503 | 14.5 | – | –
42 | C[C@H]1CN2C(=O)c3c(O)c(=O)c(C(=O)NCc4ccc(F)cc4F)c4n3C(CC4)C2N1 (stereo partly drawn) [Compound 95] | – | – | 2.59 | 124
43 | C[C@H]1CN2C(=O)c3c(O)c(=O)c(C(=O)NCc4ccc(F)cc4F)c4n3C(CC4)C2N1 (stereo partly drawn) [Compound 96] | 2.04 | 13.8 | – | –
44 | C[C@H]1CN2C(=O)c3c(O)c(=O)c(C(=O)NCc4ccc(F)cc4F)c4n3C(CC4)C2N1 (stereo partly drawn) [Compound 97] | 4.3 | 48.3 | – | –
45 | C[C@H]1CN2C(=O)c3c(O)c(=O)c(C(=O)NCc4ccc(F)cc4F)c4n3C(CC4)C2N1 (stereo partly drawn) [Compound 98] | 1.48 | 16 | – | –
46 | C[C@H]1CNC2C3CCc4c(C(=O)NCc5ccc(F)cc5F)c(=O)c(O)c(n43)C(=O)N21 (stereo partly drawn) [Compound 99] | – | 19.2 | 2.28 | –
47 | C[C@H]1CNC2C3CCc4c(C(=O)NCc5ccc(F)cc5F)c(=O)c(O)c(n43)C(=O)N21 (stereo partly drawn) [Compound 100] | 1.94 | 56.5 | – | –
48 | C[C@H]1CNC2C3CCc4c(C(=O)NCc5ccc(F)cc5F)c(=O)c(O)c(n43)C(=O)N21 (stereo partly drawn) [Compound 101] | 1.99 | 23.4 | – | –
